What follows are compounds tested on paw oedema (assay: Carrageenan-induced rat paw oedema test (Test E)). Details: oral dosing at 100 mg/kg; active = 20% or greater inhibition of paw oedema in at least two out of three tests.
Format: in vivo, rats
Method: Female rats, weight range 125-150 g were fasted overnight. One of the hind legs of each animal was marked with a line at the connection between the cuboid/navicular and calcaneus/talus bones. Groups of six rats were orally dosed at 10 ml/kg, in random order, with a given dose of the test compound given as a solution or suspension in 10% (w/v) aqueous acacia solution. One hour after dosing, 0.1 ml of 1% (w/v) sterile carrageenan λ in normal saline was injected deeply into the plantar surface of the marked hind foot of each rat. The volume of the foot (up to the marked line) was measured immediately after injection using duplicate water displacement readings. Three hours after injection the foot volume was measured again and the percentage increase in foot volume relative to the initial reading was calculated. The increase in foot volume (i.e. the degree of oedema) in drug treated animals when compared with that in the drug untreated control gave the degree of inhibition of paw oedema by the drug. […] Statistical significance was assessed using the Student's t test for single dose studies and Dunnett's test for multiple dose studies. More advantageous compounds were active in both Tests D and E.

| SMILES | deemed to be active in Test E |
| --- | --- |
| CC(c1ccc(Cl)cc1)N1CCC(CCn2ccnc2)CC1 (stereo not shown) [Example 93, 1-[1-(4-chlorophenyl)ethyl]-4-[2-(imidazol-1-yl)-ethyl]piperidine] | active |
| c1ccc(OCCN2CCC(CCn3ccnc3)CC2)cc1 [Example 87, 4-[2-(Imidazol-1-yl)ethyl]-1-(2-phenoxyethyl)piperidine] | active |
| Cl.Cl.c1ccc(CCCN2CCC(CCn3ccnc3)CC2)cc1 [Example 98, 4-[2-(imidazol-1-yl)ethyl]-1-(3-phenylpropyl)piperidine dihydrochloride] | active |

The compounds below were run on Zymosan Stimulated Macrophages (assay: Inhibition of Arachidonic Acid Release from Zymosan Stimulated Macrophages (Test D)). Details: Mus musculus, Macrophage, tested at 100, 50, 20, 10, 5 and 1 µM.
Format: cell-based, MF1 mice
Method: Female MF1 mice (weighing 20 to 25 g) were killed using a rising concentration of CO2. The mice were laid on their backs and the abdomens wiped with 70% alcohol. The skin was pulled back, exposing the peritoneal wall. Medium A (5 ml) (see below) was injected into the peritoneal cavity of each mouse followed by approximately 1 ml of air using a 20 ml syringe and a 21G x 40 mm needle in order to form a suspension of macrophage cells. The medium and cells were then removed using a 19G x 40 mm needle. The resulting suspension was returned to a sterile beaker kept on ice. The extracts from all the mice were pooled and this pooled cell suspension was counted using a Coulter counter and adjusted to a final cell count of 1 - 1.3 x 10^6 cells/ml prior to labelling with [^3H]-arachidonic acid. Typically five mice provided sufficient cells for each multiwell plate. Sufficient [^3H]arachidonic acid in ethanol to give a final concentration of 1.6 µCi/ml (equivalent to 40 µCi/plate) was blown to dryness under nitrogen. The arachidonic acid was then resuspended in 1 or 2 ml of the cell suspension which was then mixed with the remainder of the cell suspension in a centrifuge bottle. The labelled cell suspension was then plated out into sterile plastic 96 flat-bottomed well plates (250 µl per well) and incubated overnight at 37°C in a moist atmosphere of 5% CO2, 95% air. The following day, non-adherent cells were removed by washing 3 times with sterile phosphate buffered saline (PBS). The adherent peritoneal macrophages were then cultured for a further 24 hours in the presence or absence of drugs, in medium B (see below) at 37° in a 5% CO2 atmosphere in order to measure the effects of drugs on the spontaneous release of arachidonic acid in the absence of stimulus. After this incubation, supernatants were removed to give media 1 and stored in sealed multi-well plates at 4°C prior to scintillation counting. Drugs which potentiated spontaneous release of arachidonic acid (125% of controls) were deemed to be toxic at the concentration at which this phenomenon occurred. The supernatants were replaced by fresh medium C containing fresh drug and a stimulus. Three drugs were tested at six concentrations (100, 50, 20, 10, 5 and 1 µM) in replicates of four on each plate. The other wells contained controls consisting of a positive control (e.g. dexamethasone), medium (B) only and medium C only. Incubation was then continued for a further 5 hours, whereupon the supernatants were collected to give media 2 and the adherent cells washed with PBS. The cells were then lysed with 100 µl of 0.1% TRITON® X100 in a 0.1% solution of bovine serum albumin in 0.9% saline and mechanically disrupted to give cell lysates. These supernatants (media 2) and cell lysates (Cells) were also stored in sealed multi-well plates at 4°C prior to scintillation counting. 200 µl aliquots of media, or 100 µl aliquots of cells were counted using 2 ml of OPTIPHASE "HIGH SAFE" (Trademark of LKB) as scintillant. […] The value for the arachidonic acid release in the absence of stimulus (spontaneous, cpm of media 2) from cells which had been exposed to neither stimulus nor drug was subtracted from all equivalent values (cpm media 2, stimulated with or without drug) to give the net stimulated release. The percentage inhibition of arachidonic acid release caused by a drug may then be calculated using the following equation. % Inhibition = 100 -(net stimulated release in presence of drug x 100)/(net stimulated release in absence of drug) [formula] […] The zymosan stimulant was prepared as follows:- zymosan (200mg) (supplied by Sigma) was added to PBS (20ml). The mixture was boiled for 30 minutes and the volume restored to 20ml with water. The zymosan was harvested by centrifugation at 500Xg for 5 minutes, washed twice by resuspension in PBS (10ml) and centrifugation. After the final separation, the zymosan was resuspended in 20ml PBS and stored as lml aliquots at -20°C. […]

| SMILES | IC50 |
| --- | --- |
| Cc1nc2ccccc2n1CCC1CCN(CCCc2ccccc2)CC1 [Example 112, 2-Methyl-1-{2-[1-(3-phenylpropyl)piperidin-4-yl]ethyl}benzimidazole] | 16 µM |
| CSc1ccc(CCCN2CCC(CCn3ccnc3)CC2)cc1 [Example 127, 4-[2-(Imidazol-1-yl)ethyl]-1-[3-(4-methylthiophenyl)propyl]piperidine] | 16 µM |
| c1ccc(CCN2CCC(CCn3ccnc3)CC2)cc1 [Example 128, 4-[2-(Imidazol-1-yl)ethyl]-1-phenethylpiperidine] | 27 µM |
| CC1CN(CCCc2ccccc2)CCC1CCn1ccnc1 (stereo not shown) [Example 103, 4-[2-(Imidazol-1-yl)ethyl]-3-methyl-1-(3-phenylpropyl)piperidine] | 28 µM |
| C(=Cc1ccccc1)CN1CCC(CCn2ccnc2)CC1 [Example 90, 1-Cinnamyl-4-[2-(imidazol-1-yl)ethyl]-piperidine] | 31 µM |
| Clc1ccc(CCCN2CCC(CCn3ccnc3)CC2)cc1 [Example 123, 1-[3-(4-Chlorophenyl)propyl]-4-[2-(imidazol-1-yl)ethyl]piperidine] | 35 µM |
| Cc1ccc(CCCN2CCC(CCn3ccnc3)CC2)cc1 [Example 122, 4-[2-(Imidazol-1-yl)ethyl]-1-[3-(4-methylphenyl)propyl]piperidine] | 52 µM |
| Cc1ncn(CCC2CCN(CCCc3ccccc3)CC2)c1C [Example 116, 4-[2-(4,5-Dimethylimidazol-1-yl)ethyl]-1-(3-phenylpropyl)piperidine] | 18 µM |
| c1ccc(CCCN2CCC(Cn3ccnc3)CC2)cc1 [Example 102, 4-Imidazol-1-ylmethyl-1-(3-phenylpropyl)piperidine] | 54 µM |
| c1ccc(CCCN2CCC(CCn3cnc4ccccc43)CC2)cc1 [Example 114, 1-{2-[1-(3-Phenylpropyl)piperidin-4-yl]-ethyl}benzimidazole] | 34 µM |
| CC(c1ccc(Cl)cc1)N1CCC(CCn2ccnc2)CC1 (stereo not shown) [Example 93, 1-[1-(4-chlorophenyl)ethyl]-4-[2-(imidazol-1-yl)-ethyl]piperidine] | 56 µM |
| Cc1nccn1CCC1CCN(CCCc2ccccc2)CC1 [Example 117, 4-[2-(2-Methylimidazol-1-yl)ethyl]-1-(3-phenylpropyl)piperidine] | 21 µM |
| c1ccc(OCCN2CCC(CCn3ccnc3)CC2)cc1 [Example 87, 4-[2-(Imidazol-1-yl)ethyl]-1-(2-phenoxyethyl)piperidine] | 18 µM |
| c1ccc(CCCCN2CCC(CCn3ccnc3)CC2)cc1 [Example 129, 4-[2-(Imidazol-1-yl)ethyl]-1-(4-phenylbutyl)piperidine] | 16 µM |
| CC(Cn1ccnc1)C1CCN(CCCc2ccccc2)CC1 (stereo not shown) [Example 113, 4-[2-(Imidazol-1-yl)-1-methylethyl]-1-(3-phenylpropyl)piperidine] | 33 µM |
| O=C(CN1CCC(CCn2ccnc2)CC1)Nc1ccc(C(F)(F)F)cc1 [Example 91, 4-[2-(Imidazol-1-yl)ethyl]piperidino-4'-trifluoromethylacetanilide] | 17 µM |
| Cc1nc(Cl)c(Cl)n1CCC1CCN(CCCc2ccccc2)CC1 [Example 115, 4-[2-(4,5-Dichloro-2-methylimidazol-1-yl)ethyl]-1-(3-phenylpropyl)piperidine] | 31 µM |
| c1ccc(CCCN2CCC(CCn3ccnc3-c3ccccc3)CC2)cc1 [Example 109, 4-[2-(2-Phenylimidazol-1-yl)ethyl]-1-(3-phenylpropyl)piperidine] | 14 µM |
| Cl.Cl.c1ccc(CCCN2CCC(CCn3ccnc3)CC2)cc1 [Example 98, 4-[2-(imidazol-1-yl)ethyl]-1-(3-phenylpropyl)piperidine dihydrochloride] | 62 µM |

Reference: patent EP0705258B1, “AZOLYL-CYCLIC AMINE DERIVATIVES WITH IMMUNOMODULATORY ACTIVITY” (Knoll AG, priority 1993, dated 1995)
